In patent US20240307419A1, “CONFORMATIONALLY-CONSTRAINED INHIBITORS OF 3C OR 3C-LIKE PROTEASES” (priority 2021, published 2024):
Like-named read-outs stand apart in the source and are kept apart here.

How the values were obtained:
MERS-CoV 3CLpro = MERS-CoV 3CLpro (Middle East respiratory syndrome-related coronavirus (isolate United Kingdom/H123990006/2012) (MERS-CoV) (Betacoronavirus England 1), UniProt K9N7C7); assay type: biochemical
SARS-CoV-2 3CLpro = SARS-CoV-2 3CLpro (Severe acute respiratory syndrome coronavirus 2 (2019-nCoV) (SARS-CoV-2), UniProt P0DTD1); test: biochemical; assay type: biochemical
[1] = test system: Huh-7, CRFK, or CCL1 cells
SARS-CoV-2 [2] = test system: SARS-CoV-2
SARS-CoV-2 [3] = test: microbe, parasite or virus in culture; conditions: Severe acute respiratory syndrome coronavirus 2, Vero C1008, read-out: EC50 against SARS-CoV-2 in Vero E6 cells
SARS-CoV-2 [4] = test: in vitro; conditions: African green monkey
CRFK cells = conditions: cat
SARS-CoV-2 replicon [5] = test: microbe, parasite or virus in culture; assay type: cell-based; conditions: read-out: EC50, SARS-CoV-2 replicon assay
SARS-CoV-2 replicon [6] = conditions: 293T cells, previously reported; read-out: EC50 previously reported with the same system; cited from earlier work
[7] = test system: feline infectious peritonitis virus (FIPV); conditions: cell culture and naturally infected animals with long term treatment; previously reported; cited from earlier work
[8] = Severe acute respiratory syndrome coronavirus 2, HEK-293T, 30 h

Chain of MERS-CoV 3CLpro (K9N7C7 3248-3553 limits assumed): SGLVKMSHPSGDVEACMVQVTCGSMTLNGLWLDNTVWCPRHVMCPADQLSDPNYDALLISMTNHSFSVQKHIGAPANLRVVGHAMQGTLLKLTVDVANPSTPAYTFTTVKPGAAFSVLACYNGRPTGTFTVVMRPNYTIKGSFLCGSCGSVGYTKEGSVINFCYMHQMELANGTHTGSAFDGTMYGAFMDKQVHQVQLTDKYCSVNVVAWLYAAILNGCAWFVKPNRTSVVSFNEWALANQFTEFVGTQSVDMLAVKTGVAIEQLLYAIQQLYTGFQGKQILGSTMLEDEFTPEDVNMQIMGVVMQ

| SMILES | IC50 (MERS-CoV 3CLpro) [nM] | IC50 (SARS-CoV-2 3CLpro; read-out: IC50) [nM] | CC50 [1] [µM] | also measured |
| --- | --- | --- | --- | --- |
| CC(C)C[C@H](NC(=O)OC[C@@H]1C[C@@H]2CCC[C@@H](C2)C1)C(=O)N[C@H](C=O)C[C@@H]1CCNC1=O [Compound 2a, ((1R,3s,5S)-Bicyclo[3.3.1]nonan-3-yl)methyl ((S)-4-methyl-1-oxo-1-(((S)-1-oxo-3-((S)-2-oxopyrrolidin-3-yl)propan-2-yl)amino)pentan-2-yl)carbamate] | 52 ± 1 | 180 ± 30 | > 100 | EC50 lower than the corresponding IC50 values (SARS-CoV-2 [2]): ~4.6 fold; selectivity indices (SARS-CoV-2 [2]): 2857; EC50 (SARS-CoV-2 [2]; read-out: EC50 against SARS-CoV-2 in Vero E6 cells): 35 nM |
| CC(C)C[C@H](NC(=O)OCC1CC2CCC1C2)C(=O)N[C@H](C=O)C[C@@H]1CCNC1=O (stereo partly drawn) [Compound 2f, Bicyclo[2.2.1]heptan-2-ylmethyl ((S)-4-methyl-1-oxo-1-(((S)-1-oxo-3-((S)-2-oxopyrrolidin-3-yl)propan-2-yl)amino)pentan-2-yl)carbamate] | 63 ± 3 | 140 ± 20 | > 100 | – |
| CC(C)C[C@H](NC(=O)OCC12CC3CC(CC(C3)C1)C2)C(=O)N[C@H](C=O)C[C@H]1CCNC1=O [Compound 2k, ((3S,5S,7S)-Adamantan-1-yl)methyl((S)-4-methyl-1-oxo-1-(((S)-1-oxo-3-((S)-2-oxopyrrolidin-3-yl)propan-2-yl)amino)pentan-2-yl)carbamate] | 55 ± 2 | 180 ± 40 | > 100 | – |
| CC(C)C[C@H](NC(=O)OCC1C[C@H]2CCC[C@@H](C1)C2)C(=O)N[C@@H](C[C@@H]1CCNC1=O)C(O)S(=O)(=O)[O-].[Na+] (stereo partly drawn) [Compound 3a, Sodium (2S)-2-((2S)-2-(((((1R,5S)-bicyclo[3.3.1]nonan-3-yl)methoxy)carbonyl)amino)-4-methylpentanamido)-1-hydroxy-3-((S)-2-oxopyrrolidin-3-yl)propane-1-sulfonate] | 49 ± 2 | 170 ± 20 | > 100 | EC50 (SARS-CoV-2 [3]): 32 nM; EC50 lower than the corresponding IC50 values (SARS-CoV-2 [2]): ~4.6 fold; selectivity ratio (SARS-CoV-2 [4]): 3120 |
| [2H]C([2H])(OC(=O)N[C@@H](CC(C)C)C(=O)N[C@@H](C[C@@H]1CCNC1=O)C(O)S(=O)(=O)[O-])[C@@H]1C[C@@H]2C=CC[C@@H](C2)C1.[Na+] (stereo partly drawn) [Compound 3d, Sodium (2S)-2-((S)-2-(((((1S,3S,5R)-bicyclo[3.3.1]non-6-en-3-yl)methoxy-d2)carbonyl)amino)-4-methylpentanamido)-1-hydroxy-3-((S)-2-oxopyrrolidin-3-yl)propane-1-sulfonate] | – | 300 ± 30 | > 100 | – |
| CC(C)C[C@H](NC(=O)OCC1CC2C=CC1C2)C(=O)N[C@@H](C[C@@H]1CCNC1=O)C(O)S(=O)(=O)O (stereo partly drawn) [Compound 3e, Sodium (2S)-2-((2S)-2-(((bicyclo[2.2.1]hept-5-en-2-ylmethoxy)carbonyl)amino)-4-methylpentanamido)-1-hydroxy-3-((S)-2-oxopyrrolidin-3-yl)propane-1-sulfonate] | – | 280 ± 30 | > 100 | – |
| CC(C)C[C@H](NC(=O)OCC1CC2CCC1C2)C(=O)N[C@@H](C[C@@H]1CCNC1=O)C(O)S(=O)(=O)O (stereo partly drawn) [Compound 3f, Sodium (2S)-2-((2S)-2-(((bicyclo[2.2.1]heptan-2-ylmethoxy)carbonyl)amino)-4-methylpentanamido)-1-hydroxy-3-((S)-2-oxopyrrolidin-3-yl)propane-1-sulfonate] | 58 ± 2 | 100 ± 10 | > 100 | – |
| CC(C)C[C@H](NC(=O)OC1CC2CCC(C1)N2C(=O)OC(C)(C)C)C(=O)N[C@@H](C[C@H]1CCNC1=O)C(O)S(=O)(=O)O (stereo partly drawn) [Compound 3g, Sodium (2S)-2-((S)-2-(((((1R,3s,5S)-8-(tert-butoxycarbonyl)-8-azabicyclo[3.2.1]octan-3-yl)oxy)carbonyl)amino)-4-methylpentanamido)-1-hydroxy-3-((S)-2-oxopyrrolidin-3-yl)propane-1-sulfonate] | – | 1710 ± 160 | > 100 | – |
| CC(C)C[C@H](NC(=O)OC1CC2CCC(C1)N2C(=O)OCc1ccccc1)C(=O)N[C@@H](C[C@H]1CCNC1=O)C(O)S(=O)(=O)O (stereo partly drawn) [Compound 3h, Sodium (2S)-2-((S)-2-(((((1R,3s,5S)-8-((benzyloxy)carbonyl)-8-azabicyclo[3.2.1]octan-3-yl)oxy)carbonyl)amino)-4-methylpentanamido)-1-hydroxy-3-((S)-2-oxopyrrolidin-3-yl)propane-1-sulfonate] | – | 370 ± 30 | > 100 | – |
| CC(C)C[C@H](NC(=O)OCC12CC3CC(CC(C3)C1)C2)C(=O)N[C@@H](C[C@H]1CCNC1=O)C(O)S(=O)(=O)O (stereo partly drawn) [Compound 3k, Sodium (2S)-2-((S)-2-(((((3S,5S,7S)-adamantan-1-yl)methoxy)carbonyl)amino)-4-methylpentanamido)-1-hydroxy-3-((S)-2-oxopyrrolidin-3-yl)propane-1-sulfonate] | 53 ± 3 | 150 ± 40 | > 100 | – |
| CC(C)C[C@H](NC(=O)OCCC12CC3CC(CC(C3)C1)C2)C(=O)N[C@@H](C[C@H]1CCNC1=O)C(O)S(=O)(=O)O (stereo partly drawn) [Compound 3m, Sodium (2S)-2-((S)-2-(((2-((3S,5S,7S)-adamantan-1-yl)ethoxy)carbonyl)amino)-4-methylpentanamido)-1-hydroxy-3-((S)-2-oxopyrrolidin-3-yl)propane-1-sulfonate] | – | 250 ± 40 | > 100 | – |
| CC(C)C[C@H](NC(=O)OCC12CC3CC(CC(O)(C3)C1)C2)C(=O)N[C@@H](C[C@H]1CCNC1=O)C(O)S(=O)(=O)[O-].[Na+] (stereo partly drawn) [Compound 3n, Sodium (2S)-1-hydroxy-2-((S)-2-(((((1r,3R,5R,7S)-3-hydroxyadamantan-1-yl)methoxy)carbonyl)amino)-4-methylpentanamido)-3-((S)-2-oxopyrrolidin-3-yl)propane-1-sulfonate] | – | 1030 ± 240 | > 100 | decrease in potency compared to 2k/3k (SARS-CoV-2 3CLpro): ~5 fold |
| CC(C)C[C@H](NC(=O)OC1CC2(CCN(C(=O)OC(C)(C)C)CC2)C1)C(=O)N[C@H](C=O)C[C@H]1CCNC1=O [Compound 7b, Tert-butyl 2-((((S)-4-methyl-1-oxo-1-(((S)-1-oxo-3-((R)-2-oxopyrrolidin-3-yl)propan-2-yl)amino)pentan-2-yl)carbamoyl)oxy)-7-azaspiro[3.5]nonane-7-carboxylate] | – | – | – | CC50 (CRFK cells): > 100 µM; IC50 lower than that of compound 1b (SARS-CoV-2 3CLpro): > 9 fold; EC50 (SARS-CoV-2 replicon [5]; [8]): 90 nM |
| CC(C)C[C@H](NC(=O)OC1CC2(CCN(C(=O)OC(C)(C)C)CC2)C1)C(=O)N[C@@H](C[C@H]1CCNC1=O)C(O)S(=O)(=O)O (stereo partly drawn) [Compound 7c, Sodium (2S)-2-((S)-2-((((7-(tert-butoxycarbonyl)-7-azaspiro[3.5]nonan-2-yl)oxy)carbonyl)amino)-4-methylpentanamido)-1-hydroxy-3-((R)-2-oxopyrrolidin-3-yl)propane-1-sulfonate] | – | – | – | CC50 (CRFK cells): > 100 µM; EC50 (SARS-CoV-2 replicon [5]; [8]): 80 nM |
| CC(C)C[C@H](NC(=O)OCC1CN(C(=O)OC(C)(C)C)C1)C(=O)N[C@H](C=O)C[C@H]1CCNC1=O [Compound 14b, Tert-butyl 3-(((((S)-4-methyl-1-oxo-1-(((S)-1-oxo-3-((R)-2-oxopyrrolidin-3-yl)propan-2-yl)amino)pentan-2-yl)carbamoyl)oxy)methyl)azetidine-1-carboxylate] | – | – | – | CC50 (CRFK cells): > 100 µM; EC50 (SARS-CoV-2 replicon [5]; [8]): 380 nM |
| CC(C)C[C@H](NC(=O)OCC1CN(C(=O)OC(C)(C)C)C1)C(=O)N[C@@H](C[C@H]1CCNC1=O)C(O)S(=O)(=O)O (stereo partly drawn) [Compound 14c, Sodium (2S)-2-((S)-2-((((1-(tert-butoxycarbonyl)azetidin-3-yl)methoxy)carbonyl)amino)-4-methylpentanamido)-1-hydroxy-3-((R)-2-oxopyrrolidin-3-yl)propane-1-sulfonate] | – | – | – | CC50 (CRFK cells): > 100 µM; IC50 (SARS-CoV-2 3CLpro): 50 nM; EC50 (SARS-CoV-2 replicon [5]; [8]): 430 nM |
| CC(C)C[C@H](NC(=O)OCc1ccccc1)C(=O)N[C@@H](CC1CCNC1=O)C(O)S(=O)(=O)O (some centres unmarked) [GC376] | – | – | – | EC50 (SARS-CoV-2 replicon [6]): 20 nM; EC50 (SARS-CoV-2 replicon [5]): 37 ± 10 nM |
| CC(C)C[C@H](NC(=O)OCc1ccccc1)C(=O)N[C@@H](C[C@@H]1CCNC1=O)C(O)S(=O)(=O)[O-].[Na+] (some centres unmarked) [GC376] | – | – | – | barrier to resistance to FIPV [7]: high barrier to resistance |
